Laboratory results published in BindingDB's records for doi:10.1016/s0960-894x(02)00206-8 (Bristol-Myers Squibb, 2002).

test: In vitro C-C chemokine receptor type 3 activity of compound by using eotaxin induced human eosinophil chemotaxis assay

SMILES	IC50
CC[C@H](O)[C@H]1C[C@@H](Cc2ccccc2)CCN1CCCNC(=O)Nc1cccc(C(C)=O)c1 [1-(3-Acetyl-phenyl)-3-{3-[(2R,4S)-4-benzyl-2-((S)-1-hydroxy-propyl)-piperidin-1-yl]-propyl}-urea]	20 nM
N#Cc1cccc(NC(=O)NCCCN2CCC(Cc3ccc(F)cc3)CC2)c1 [1-(3-Cyano-phenyl)-3-{3-[4-(4-fluoro-benzyl)-piperidin-1-yl]-propyl}-urea]	80 nM
N#Cc1cccc(NC(=O)NCCCN2CCC(Cc3ccc(Cl)cc3)CC2)c1 [1-{3-[4-(4-Chloro-benzyl)-piperidin-1-yl]-propyl}-3-(3-cyano-phenyl)-urea]	200 nM
